Source: ChEMBL document CHEMBL1141170, “Rational approach to discover multipotent anti-Alzheimer drugs” (J Med Chem, 2005)

Key:
Acetylcholinesterase = Acetylcholinesterase (Homo sapiens, UniProt P22303)
Description: Inhibitory concentration against human recombinant acetylcholinesterase

Cholinesterase = Cholinesterase (Homo sapiens, UniProt P06276)
Description: Inhibitory concentration against human recombinant butyrylcholinesterase

Homo sapiens [1] = species on record: Homo sapiens; experiment: Percentage increase of intracellular reactive oxygen species in neuronal cells at 0 uM; type: functional
Homo sapiens [2] = species on record: Homo sapiens; experiment: Percentage increase of intracellular reactive oxygen species in neuronal cells at 1 uM; type: functional
Homo sapiens [3] = species on record: Homo sapiens; experiment: Percentage increase of intracellular reactive oxygen species in neuronal cells at 5 uM; type: functional
Homo sapiens [4] = species on record: Homo sapiens; experiment: Percentage increase of intracellular reactive oxygen species in neuronal cells at 10 uM; Cytotoxicity; type: functional
Homo sapiens [5] = species on record: Homo sapiens; experiment: Percentage increase of intracellular reactive oxygen species in neuronal cells at 50 uM; Cytotoxicity; type: functional
Homo sapiens [6] = species on record: Homo sapiens; experiment: Percentage increase of intracellular reactive oxygen species in neuronal cells at 0.5 uM; type: functional
Homo sapiens [7] = species on record: Homo sapiens; experiment: Percentage increase of intracellular reactive oxygen species in neuronal cells at 0.1 uM; type: functional
Homo sapiens [8] = species on record: Homo sapiens; experiment: Percentage increase of intracellular reactive oxygen species in neuronal cells at 10 uM; type: functional
Homo sapiens [9] = species on record: Homo sapiens; experiment: Percentage increase of intracellular reactive oxygen species in neuronal cells at 50 uM; type: functional

Chain of Cholinesterase (P06276 whole entry): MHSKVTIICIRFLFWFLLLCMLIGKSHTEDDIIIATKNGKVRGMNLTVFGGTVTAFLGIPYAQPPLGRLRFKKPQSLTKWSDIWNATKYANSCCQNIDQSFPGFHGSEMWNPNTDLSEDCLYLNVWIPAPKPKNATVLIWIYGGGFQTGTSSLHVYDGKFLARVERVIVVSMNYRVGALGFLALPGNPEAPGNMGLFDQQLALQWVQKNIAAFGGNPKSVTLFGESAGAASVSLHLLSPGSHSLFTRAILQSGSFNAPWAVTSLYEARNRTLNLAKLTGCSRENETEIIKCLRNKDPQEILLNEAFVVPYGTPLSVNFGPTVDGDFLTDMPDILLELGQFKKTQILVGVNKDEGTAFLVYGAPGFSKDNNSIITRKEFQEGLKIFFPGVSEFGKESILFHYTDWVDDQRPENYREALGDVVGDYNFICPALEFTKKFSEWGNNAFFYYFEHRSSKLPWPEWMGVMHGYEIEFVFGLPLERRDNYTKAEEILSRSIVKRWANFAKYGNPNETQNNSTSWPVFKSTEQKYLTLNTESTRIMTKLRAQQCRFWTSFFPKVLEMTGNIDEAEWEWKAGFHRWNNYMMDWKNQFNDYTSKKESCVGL
Chain of Acetylcholinesterase (P22303 whole entry): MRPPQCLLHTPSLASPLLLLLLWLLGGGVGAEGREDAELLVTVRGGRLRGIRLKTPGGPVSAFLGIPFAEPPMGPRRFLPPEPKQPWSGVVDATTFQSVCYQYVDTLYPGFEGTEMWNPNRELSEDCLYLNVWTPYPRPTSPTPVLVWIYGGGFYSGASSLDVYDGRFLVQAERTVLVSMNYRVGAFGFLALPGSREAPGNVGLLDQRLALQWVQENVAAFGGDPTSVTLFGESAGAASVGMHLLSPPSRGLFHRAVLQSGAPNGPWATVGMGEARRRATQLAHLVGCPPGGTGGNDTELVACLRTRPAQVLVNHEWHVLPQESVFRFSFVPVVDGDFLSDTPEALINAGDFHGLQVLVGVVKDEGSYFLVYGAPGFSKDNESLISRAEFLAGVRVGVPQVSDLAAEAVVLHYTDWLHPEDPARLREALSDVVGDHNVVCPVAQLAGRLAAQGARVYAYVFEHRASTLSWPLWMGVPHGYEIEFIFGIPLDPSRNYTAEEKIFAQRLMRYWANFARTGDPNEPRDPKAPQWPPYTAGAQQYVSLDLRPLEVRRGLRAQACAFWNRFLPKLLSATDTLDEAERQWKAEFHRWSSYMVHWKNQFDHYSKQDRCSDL

Nc1c2c(nc3cc(Cl)ccc13)CC(CNC(=O)CCCCC1CCSS1)CC2 (configuration not stated)
IC50 (Acetylcholinesterase): 1090 nM | IC50 (Cholinesterase): 329 nM

NCCCNc1c2c(nc3cc(Cl)ccc13)CCCC2
Activity (Homo sapiens [1]): 86% | Activity (Homo sapiens [2]): 96.67% | Activity (Homo sapiens [3]): 82.5% | Activity (Homo sapiens [4]): Toxic | Activity (Homo sapiens [5]): Toxic | Activity (Homo sapiens [6]): 99.67% | Activity (Homo sapiens [7]): 99.5% | IC50 (Cholinesterase): 2580 nM

O=C(CCCCC1CCSS1)NCCCNc1c2c(nc3cc(Cl)ccc13)CCCC2 (racemic) [LIPOCRINE]
Activity (Homo sapiens [1]): 86% | Activity (Homo sapiens [2]): 77% | Activity (Homo sapiens [3]): 61.67% | Activity (Homo sapiens [6]): 95% | Activity (Homo sapiens [8]): 51.25% | Activity (Homo sapiens [9]): 30.5% | Activity (Homo sapiens [7]): 88.75%
